From patent US12522596B2, “Compounds as GLP-1R agonists” (Terns Pharmaceuticals, Inc., priority 2021, dated 2026)
“Also recorded” adds a separate entry of the source.

Experiments:
[1] = test system: mice expressing wildtype (WT) mouse GLP-1R; test: Glucose tolerance in mice expressing wildtype mouse GLP-1R; assay type: in vivo; conditions: mice expressing WT mouse GLP-1R
Protocol: The glucose tolerance of mice expressing wildtype (WT) mouse GLP-1R was also evaluated after the administration of compound 2 using methods analogous to those described above. The glucose tolerance of mice expressing WT mouse GLP-1R was not affected by Compound 2, whereas the glucose tolerance of mice expressing human GLP-1R was improved by Compound 2 (FIGS. 9 and 10).

[2] = test system: C57BL/6 mice expressing human GLP-1R (hGLP-1R); test: Intraperitoneal glucose tolerance test (IPGTT) in hGLP-1R mice; assay type: in vivo, mouse; conditions: IP glucose bolus, relative to vehicle control
Protocol: The ability of compounds disclosed herein to modify the glucose tolerance of C57BL/6 mice expressing human GLP-1R (hGLP-1R), was evaluated.
The group design used in this study is described in Table 8.
Acclimation and grouping: Following a one-week washout period after in-life completion of the food intake study, mice were utilized to conduct an intraperitoneal Glucose Tolerance Test (IPGTT); mice remained in their treatment groups from study the food intake study. Baseline fasting glucose levels were used to balance treatment groups (final n=7 per treatment group); outlier mice (n=3), based on abnormal fasting blood glucose and body weight, were used for PK assessment.
Intraperitoneal Glucose Tolerance Test (IPGTT): The mice were placed clean cages with sawdust bedding and fasted overnight. Basal fasting glucose was measured by tail vein nick before dosing in the morning, 3 mice per group of abnormal fasting blood glucose and body weight were used for PK assessment. […] Blood glucose levels were measured at 0 (pre-dose), 15-, 30-, 60-, and 120-min post glucose dosing. […]
Data Processing and analysis: Manual data were transferred into an excel spreadsheet. All values are expressed as mean±S.E.M. The significances of the differences among groups and within groups were evaluated by one-way or two-way ANOVA using Graph Pad statistic software. […]

human hepatocytes = test: Metabolic stability in human hepatocytes; assay type: in vitro ADME; conditions: human
In short: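 Compounds at 1 μM (0.1% DMSO) were incubated with 1×10^6 cells/mL cryopreserved rat or human hepatocytes in DMEM at 37°C for 0–240 min. Parent remaining was measured by LC-MS/MS; k from semi-log decline gave t1/2 and CLint, with CLhep predicted by the well-stirred model.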

CLint relative to reference (human hepatocytes) | half-life relative to standard (human hepatocytes) | SMILES | glucose tolerance [1] | glucose tolerance [2]
– | – | N#Cc1ccc(COc2cccc(C3CCN(Cc4nc5ccc(C(=O)O)cc5n4Cc4cncs4)CC3)n2)c(F)c1 [Compound 2] | not affected | significantly enhanced the glucose tolerance; also recorded: improved
no significant difference | no significant difference | N#Cc1ccc(COc2cccc(N3CCN(Cc4nc5ccc(C(=O)O)cc5n4Cc4cncs4)CC3)n2)c(F)c1 [Compound 30] | – | –
